Here are results for 24 compounds from US8853258B2, “C-linked hydroxamic acid derivatives useful as antibacterial agents” (Pfizer Inc., priority 2009, dated 2014).

For orientation: MIC means the least concentration at which growth counts as inhibited.

Assay type in all cases: cell-based
In series [1] the test system is Escherichia coli EC-1: VOGEL, mouse virulent. Put plainly: MIC determination (CLSI), EC-1. The following applies: for EC-1 MIC: Escherichia coli EC-1 VOGEL, mouse virulent; for MIC: Escherichia coli, read-out: EC-1: (MIC). The method, then: (§1) The in vitro antibacterial activity of compounds described in the Examples was evaluated by minimum inhibitory concentration (MIC) testing according to Clinical and Laboratory Standards Institute (CLSI, formerly NCCLS) guidelines. See: Clinical and Laboratory Standards Institute. Methods for Dilution Antimicrobial Susceptibility Tests for Bacteria that Grow Aerobically; Approved Standard-Seventh Edition. CLSI document M7-A7 [ISBN 1-56238-587-9]. Clinical and Laboratory Standards Institute, 940 West Valley Road, Suite 1400, Wayne, Pa. 19087-1898 USA, 2006; also Clinical and Laboratory Standards Institute. Performance Standards for Antimicrobial Susceptibility Testing; Eighteenth Informational Supplement. CLSI document M100-S18 [ISBN1-56238-653-0]. Clinical and Laboratory Standards Institute.
(§2) The following bacterial strains were used in these MIC determinations:
3) Escherichia coli EC-1: VOGEL, mouse virulent labeled as EC-1 in Tables 1, 2 and 3;

The test system of series [2] is Pseudomonas aeruginosa UI-18: Wild-type (PA-7). Put plainly: MIC determination (CLSI), PA-7. The following applies: for PA-7 MIC: Pseudomonas aeruginosa UI-18 wild-type PA-7; for MIC: Pseudomonas aeruginosa, Table 1, read-out: PA-7 (MIC). As to the method:
as §1, §2
1) Pseudomonas aeruginosa UI-18: Wild-type, labeled as PA-7 in Tables 1, 2 and 3;

Series [3] concerns Klebsiella pneumoniae: Ciprofloxacin-resistant isolate, ESBL, clinical isolate (KP-3700). In words: MIC determination (CLSI), KP-3700. The method, then: as §1, §2
4) Klebsiella pneumoniae: Ciprofloxacin-resistant isolate, expresses extended-spectrum beta-lactamases (ESBL), clinical isolate, labeled as KP-3700 in Tables 1, 2, and 3.

Series [4] relates to Acinetobacter baumanii/haemolyticus: Multidrug-resistant clinical isolate (AB-3167). In words: MIC determination (CLSI), AB-3167. As to conditions: for AB-3167 MIC: Acinetobacter baumanii/haemolyticus multidrug-resistant clinical isolate AB-3167; for MIC: Acinetobacter baumannii, Table 1, read-out: AB-3167 (MIC). The method, then: as §1, §2
2) Acinetobacter baumanii/haemolyticus: Multidrug-resistant clinical isolate labeled as AB-3167 in Tables 1, 2 and 3;

Converted amounts (≈) assume the structure as drawn.

As for `COC(C)c1ccc(-c2ccc(CCC(C)(C(=O)NO)S(C)(=O)=O)cc2)cc1` (mixture of isomers) [Example 71], in series [1], the “EC-1 MIC” value amounted to 4 µg/mL. In series [2], the “PA-7 MIC” value came to 4 µg/mL. Further, the “KP-3700 MIC” value in series [3] was determined as 16 µg/mL. For the same compound, the “AB-3167 MIC” value in series [4] is 32 µg/mL.

Regarding `CC(CCc1ccc(OC2CCCC2)cc1)(C(=O)NO)S(C)(=O)=O` (racemic) [Example 15, (+/−)-4-[4-(Cyclopentyloxy)phenyl]-N-hydroxy-2-methyl-2-(methylsulfonyl)butanamide], the values for the MIC in series [1], in series [2] and in series [4] were 16 µg/mL (≈ 45 µM), 4 µg/mL (≈ 11.3 µM) and 32 µg/mL (≈ 90 µM), respectively. Moreover, in series [3], the “KP-3700 MIC” value is “≧64 mg/L”.

Take `CC(CCc1ccc(OCCC2CC2)cc1)(C(=O)NO)S(C)(=O)=O` (racemic) [Example 17, (+/−)-4-[4-(2-Cyclopropylethoxy)phenyl]-N-hydroxy-2-methyl-2-(methylsulfonyl)butanamide]: the MIC in series [1] was 32 µg/mL (≈ 90 µM); in series [2], 8 µg/mL (≈ 22.5 µM); in series [4], 32 µg/mL (≈ 90 µM). Besides, in series [3], the “KP-3700 MIC” value was “≧64 mg/L”.

With `CC(CCc1ccc(-n2cc3ccccc3n2)cc1)(C(=O)NO)S(C)(=O)=O` (racemic) [Example 22, (+/−)-N-hydroxy-4-[4-(2H-indazol-2-yl)phenyl]-2-methyl-2-(methylsulfonyl)butanamide], the MIC was 4 µg/mL (≈ 10.3 µM) in series [1], 4 µg/mL (≈ 10.3 µM) in series [2] and at least 64 µg/mL in series [4]. In series [3], the “KP-3700 MIC” value is 8 µg/mL.

On to `CC(C)Oc1ccc(-c2ccc(CCC(C)(C(=O)NO)S(C)(=O)=O)cc2)cc1` (racemic) [Example 49], for which the “EC-1 MIC” value in series [1] is 2 µg/mL. In series [2], the “PA-7 MIC” value was found to be 4 µg/mL. For the same compound, in series [3], the “KP-3700 MIC” value came out at 4 µg/mL. In series [4], the “AB-3167 MIC” value amounted to 8 µg/mL.

Consider `Cc1cc(C)cc(-c2ccc(CCC(C)(C(=O)NO)S(C)(=O)=O)cc2)c1` (racemic) [Example 52], for which, in series [1], the “EC-1 MIC” value was found to be 2 µg/mL. The “PA-7 MIC” value in series [2] turned out to be 2 µg/mL. The “KP-3700 MIC” value in series [3] was 4 µg/mL. In addition, the “AB-3167 MIC” value in series [4] came to 8 µg/mL.

`CC(CCc1ccc(-c2ccc(F)cc2F)cc1)(C(=O)NO)S(C)(=O)=O` (racemic) [Example 53]: the “EC-1 MIC” value in series [1] was determined as 1 µg/mL. The “PA-7 MIC” value in series [2] amounted to 0.5 µg/mL. Moreover, the “KP-3700 MIC” value in series [3] was found to be 4 µg/mL. Further, the “AB-3167 MIC” value in series [4] amounted to 8 µg/mL.

Consider `CC(CCc1ccc(-c2c(F)cccc2F)cc1)(C(=O)NO)S(C)(=O)=O` (racemic) [Example 54], for which, in series [1], the “EC-1 MIC” value is 4 µg/mL. The “PA-7 MIC” value in series [2] is 1 µg/mL. Also, the “KP-3700 MIC” value in series [3] came out at 16 µg/mL. Also, in series [4], the “AB-3167 MIC” value amounted to 16 µg/mL.

Consider `COc1ccc(-c2ccc(CCC(C)(C(=O)NO)S(C)(=O)=O)cc2)cc1` (racemic) [Example 55], for which the “EC-1 MIC” value in series [1] was 0.5 µg/mL. Further, in series [2], the “PA-7 MIC” value stood at 0.5 µg/mL. For the same compound, in series [3], the “KP-3700 MIC” value was 2 µg/mL. Also, the “AB-3167 MIC” value in series [4] worked out at 16 µg/mL.

Regarding `Cc1ccccc1-c1ccc(CCC(C)(C(=O)NO)S(C)(=O)=O)cc1` (racemic) [Example 58], in series [1], the “EC-1 MIC” value was 8 µg/mL. Moreover, in series [2], the “PA-7 MIC” value is 4 µg/mL. In addition, the “KP-3700 MIC” value in series [3] stood at 32 µg/mL. Also, the “AB-3167 MIC” value in series [4] came out at 32 µg/mL.

With `COc1ccc(-c2ccc(CCC(C)(C(=O)NO)S(C)(=O)=O)cc2)c(C)c1` (racemic) [Example 60], the “EC-1 MIC” value in series [1] worked out at 4 µg/mL. In series [2], the “PA-7 MIC” value turned out to be 4 µg/mL. The “KP-3700 MIC” value in series [3] turned out to be 16 µg/mL. Also, the “AB-3167 MIC” value in series [4] is listed as “≧64 mg/L”.

Turning to `CC(CCc1ccc(-c2cccnc2)cc1)(C(=O)NO)S(C)(=O)=O` (racemic) [Example 61], in series [1], the “EC-1 MIC” value is reported as “≧64 mg/L”. In series [2], the “PA-7 MIC” value is 16 µg/mL. The “KP-3700 MIC” value in series [3] is “≧64 mg/L”. Further, the “AB-3167 MIC” value in series [4] is “≧64 mg/L”.

For the compound `COc1ccc(-c2ccc(CCC(C)(C(=O)NO)S(C)(=O)=O)cc2)c(OC)c1` (racemic) [Example 65], the “EC-1 MIC” value in series [1] came to 1 µg/mL. Moreover, the “PA-7 MIC” value in series [2] was 2 µg/mL. Also, the “KP-3700 MIC” value in series [3] stood at 2 µg/mL. In series [4], the “AB-3167 MIC” value stood at 32 µg/mL.

As to `COc1ccc(-c2ccc(CCC(C)(C(=O)NO)S(C)(=O)=O)cc2)cc1F` (racemic) [Example 66], in series [1], the “EC-1 MIC” value stood at 1 µg/mL. Further, in series [2], the “PA-7 MIC” value is 1 µg/mL. Further, the “KP-3700 MIC” value in series [3] was 8 µg/mL. Moreover, in series [4], the “AB-3167 MIC” value was found to be 16 µg/mL.

Turning to `COc1ccc(-c2ccc(CCC(C)(C(=O)NO)S(C)(=O)=O)cc2)cc1C` (racemic) [Example 67], in series [1], the “EC-1 MIC” value amounted to 4 µg/mL. In series [2], the “PA-7 MIC” value stood at 16 µg/mL. In addition, the “KP-3700 MIC” value in series [3] is 8 µg/mL. Besides, the “AB-3167 MIC” value in series [4] is “≧64 mg/L”.

Turning to `CNS(=O)(=O)c1ccc(-c2ccc(CCC(C)(C(=O)NO)S(C)(=O)=O)cc2)cc1` (racemic) [Example 68], the “EC-1 MIC” value in series [1] came out at 32 µg/mL. Further, the “PA-7 MIC” value in series [2] stood at 4 µg/mL. For the same compound, in series [3], the “KP-3700 MIC” value turned out to be 32 µg/mL. In addition, the “AB-3167 MIC” value in series [4] is on record as “≧64 mg/L”.

Take `CCc1ccccc1-c1ccc(CCC(C)(C(=O)NO)S(C)(=O)=O)cc1` (racemic) [Example 69]: the “EC-1 MIC” value in series [1] is 16 µg/mL. Further, the “PA-7 MIC” value in series [2] stood at 16 µg/mL. Also, the “KP-3700 MIC” value in series [3] is reported as “≧64 mg/L”. In addition, in series [4], the “AB-3167 MIC” value was “≧64 mg/L”.

Regarding `CC(CCc1ccc(-c2ccc(Cl)cc2Cl)cc1)(C(=O)NO)S(C)(=O)=O` (racemic) [Example 70], the “EC-1 MIC” value in series [1] turned out to be 1 µg/mL. In addition, the “PA-7 MIC” value in series [2] was 1 µg/mL. Also, the “KP-3700 MIC” value in series [3] is 2 µg/mL. Besides, the “AB-3167 MIC” value in series [4] came to 32 µg/mL.

In the case of `COc1ccc(-c2ccc(CCC(C)(C(=O)NO)S(C)(=O)=O)cc2)cn1` (racemic) [Example 72], the “EC-1 MIC” value in series [1] came out at 8 µg/mL. Besides, the “PA-7 MIC” value in series [2] is 4 µg/mL. Moreover, the “KP-3700 MIC” value in series [3] is 32 µg/mL. Further, the “AB-3167 MIC” value in series [4] is recorded as “≧64 mg/L”.

As for `Cc1ccc(C)c(-c2ccc(CCC(C)(C(=O)NO)S(C)(=O)=O)cc2)c1` (racemic) [Example 73], the “EC-1 MIC” value in series [1] came out at 16 µg/mL. Also, in series [2], the “PA-7 MIC” value is 32 µg/mL. For the same compound, the “KP-3700 MIC” value in series [3] is given as “≧64 mg/L”. The “AB-3167 MIC” value in series [4] is 4 µg/mL.

For `CC(CCc1ccc(-c2ccc3c(c2)CCO3)cc1)(C(=O)NO)S(C)(=O)=O` (racemic) [Example 74], the “EC-1 MIC” value in series [1] amounted to 1 µg/mL. The “PA-7 MIC” value in series [2] was found to be 1 µg/mL. In addition, the “KP-3700 MIC” value in series [3] worked out at 4 µg/mL. Also, in series [4], the “AB-3167 MIC” value was found to be 16 µg/mL.

Regarding `CC(CCc1ccc(-c2ccc(F)c(F)c2)cc1)(C(=O)NO)S(C)(=O)=O` (racemic) [Example 75], the “EC-1 MIC” value in series [1] worked out at 1 µg/mL. In addition, the “PA-7 MIC” value in series [2] came out at 0.5 µg/mL. For the same compound, the “KP-3700 MIC” value in series [3] was found to be 4 µg/mL. Moreover, in series [4], the “AB-3167 MIC” value is 8 µg/mL.

Turning to `COc1ncccc1-c1ccc(CCC(C)(C(=O)NO)S(C)(=O)=O)cc1` (racemic) [Example 76], in series [1], the “EC-1 MIC” value is 32 µg/mL. In addition, in series [2], the “PA-7 MIC” value stood at 16 µg/mL. In addition, the “KP-3700 MIC” value in series [3] is “≧64 mg/L”. For the same compound, the “AB-3167 MIC” value in series [4] is given as “≧64 mg/L”.

Regarding `CC(CCc1ccc(-c2ccc(S(C)(=O)=O)cc2)cc1)(C(=O)NO)S(C)(=O)=O` (racemic) [Example 79], the “EC-1 MIC” value in series [1] was found to be 32 µg/mL. Further, in series [2], the “PA-7 MIC” value is 4 µg/mL. Moreover, the “KP-3700 MIC” value in series [3] is on record as “≧64 mg/L”. Further, the “AB-3167 MIC” value in series [4] is on record as “≧64 mg/L”.
